These results are taken from patent US12702665B2, “ExoVII inhibitor and quinolone antibiotic combination useful for treating bacterial infection” (The United States of America, As Represented by the …, priority 2020, dated 2026).

Test [1] has as its system E. coli strains carrying the gyrA-S83L mutation. Put plainly: MIC of ciprofloxacin (MIC test strips), quinolone-resistant gyrA-S83L strains. The class given is cell-based.
For test [2], the system named is E. coli pgyrAHis transformants deficient in ExoVII. The test is described as follows: Spotting assay on LB plates containing quinolones. The class given is cell-based. The conditions noted are these: ΔxseA or ΔxseB pgyrAHis transformants vs wild-type. The text has this: FIG. 8A, FIG. 8B, and FIG. 8C. Expression of a functional GyrAHis has no impact on sensitivities of E. coli strains to quinolones. FIG. 8A. Transformants of a single-copy plasmid bearing the gyrA gene including its endogenous promoter and a C-terminal His-tag (pgyrAHis) were established in either the wild-type, ΔxseA or ΔxseB strains. […] The asterisk denotes a non-specific band. FIG. 8B. Immunoblotting of the same transformants as in FIG. 8A, probed with anti-GyrA antibody (Abcam). FIG. 8C. […] Two technical replicates are shown.
Cell killing assays were carried out as previously described. Briefly, transformants harboring pBAD/Thio, pYtopA or pYtopA-R327W were grown in LB with 2% glucose and 50 μg/mL carbenicillin overnight and diluted 1:100 in LB with 50 μg/mL carbenicillin and grown to OD600 of 0.4. YTop1 or YTop1-R327W were induced by addition of 0.2% arabinose for 0.5-2 hrs. Post-induction cultures were then serially diluted and spotted onto LB plates with 2% glucose and 50 μg/mL carbenicillin and incubated at 37° C. overnight. Alternatively, exponentially growing transformants were serially diluted as indicated and spotted on LB plates containing 50 μg/mL carbenicillin and indicated concentrations of arabinose and incubated at 37° C. overnight.

For test [3], the system named is WT-pgyrA-S83L. The test is described as follows: Synergy with ciprofloxacin in quinolone-resistant strain (OD600 growth). The test is classed as cell-based, E. coli. As for the experimental part: (§1) OD600 was measured at the end of 4-hr incubation at 37° C. shaking at 225 rpm and cell densities were normalized to samples without any drug treatment. Toxicity of compounds were measured by treating either HEK293 or MEF (1000 cells in 96-well plates seeded 24-hr prior) with indicated concentrations of ExoVII inhibitor for 72 hours. The samples were imaged with a Cytation 5 (BioTek) and the confluency of each well were normalized to untreated samples.

In test [4] the test system is ΔxseA-pgyrA-S83L. Put plainly: Synergy with ciprofloxacin in quinolone-resistant ExoVII-deficient strain (OD600 growth). The class given is cell-based, E. coli. On the procedure:
as §1

Test [5] relates to ΔxseB-pgyrA-S83L. The test is described as above. The test is classed as cell-based, E. coli. On the procedure:
as §1

For test [6], the target named is T1, ExoVII (Escherichia coli, UniProt P04994).
T1 construct: purchased ThermoFisher or NEB
Put plainly: In-vitro ExoVII cleavage assay (IC50 determination). The test is classed as biochemical. On the procedure: FIG. 13A, FIG. 13B, FIG. 13C, and FIG. 13D. CPID is a specific ExoVII inhibitor. FIG. 13A. […] FIG. 13B. […] FIG. 13C. […] Representative gel image and quantification are shown. IC50 value was averaged from 5 independent experiments. FIG. 13D. CPID is not toxic to HEK293 or MEF cells as determined by relative confluency of seeded cells after 72-hour treatment at the indicated CPID concentration.
ExoVII reactions were incubated at 37° C. for 1 or 2 hrs followed by inactivation at 55° C. for 30 mins before terminated by addition of 20 μL formamide gel loading buffer (96% (v/v) formamide, 10 mM ethylenediaminetetraacetic acid, 1% (w/v) xylene cyanol and 1% (w/v) bromophenol blue). For IC50 determination, ExoVII was preincubated with the inhibitor at 25° C. for 5 mins before addition of equal volume of DNA solution and the reaction continued for another 20-30 mins. The 10 μL reaction contained 0.025 U/μL ExoVII, 20-100 nM internally ratio-labeled DNA substrate, and indicated inhibitor concentration in buffer with 50 mM potassium acetate, 20 mM trisacetate (pH=7.9), 10 mM magnesium acetate, 1 mM DTT and 10% (v/v) DMSO. The percentage of products in the presence of inhibitor was normalized to that of control reaction without any inhibitors, and resulting plot was fitted to a nonlinear regression function in Prism. DNA gyrase was purified as previously described.

The subject of test [7] is Staphylococcus aureus strain HG003. Put plainly: Synergy with ciprofloxacin in Staphylococcus aureus cultures (OD600 growth). The test is classed as cell-based. The note with it: gram-positive. As for the experimental part: as §1

For orientation: IC50 means the concentration that gives 50% inhibition.

T1 sequence (P04994 whole entry): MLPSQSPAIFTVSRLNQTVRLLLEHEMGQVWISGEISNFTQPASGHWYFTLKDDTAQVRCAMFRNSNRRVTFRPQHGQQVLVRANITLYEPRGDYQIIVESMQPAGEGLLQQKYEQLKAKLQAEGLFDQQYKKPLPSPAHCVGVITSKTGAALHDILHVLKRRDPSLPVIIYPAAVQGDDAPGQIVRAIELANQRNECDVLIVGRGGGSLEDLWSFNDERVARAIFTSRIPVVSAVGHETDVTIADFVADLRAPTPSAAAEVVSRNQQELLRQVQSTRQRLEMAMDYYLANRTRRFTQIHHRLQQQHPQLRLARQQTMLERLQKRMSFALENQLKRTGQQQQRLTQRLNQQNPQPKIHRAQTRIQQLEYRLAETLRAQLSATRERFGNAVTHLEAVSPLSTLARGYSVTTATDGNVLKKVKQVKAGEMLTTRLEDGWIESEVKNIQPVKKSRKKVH
T1 sequence (P0A8G9 whole entry, further chain): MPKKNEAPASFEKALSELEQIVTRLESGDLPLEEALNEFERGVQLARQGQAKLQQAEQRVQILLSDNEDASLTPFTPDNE

As to `O=C(O)c1cn(C2CC2)c2cc(N3CCNCC3)c(F)cc2c1=O` [ciprofloxacin], the “Decrease in ciprofloxacin MIC on inactivating either subunit of ExoVII” value in test [1] (gyrA-S83L background) is listed as ~ 2 fold. The “Increase in ciprofloxacin MIC by gyrA-S83L” value in test [1] (gyrA-S83L vs wild-type gyrA) is reported as 10 fold. Also, the “Sensitivity of ExoVII-deficient transformants to quinolones” value in test [2] is reported as “hypersensitivity”.

With `O=C1Cc2ccc(-c3cccc(Cl)c3)cc2C(=O)N1` [CPID, 7-(3-chlorophenyl)-1,3(2H,4H)-Isoquinolinedione], the Synergy with ciprofloxacin result in test [3] is reported as “synergistic”; in test [4] it was “not synergistic”; in test [5] it was “not synergistic”; in test [7], “clear synergy”. The molecule also had an IC50 in test [6] of 2430 nM.

`CCn1cc(C(=O)O)c(=O)c2ccc(C)nc21` [nalidixic acid]: the “Sensitivity of ExoVII-deficient transformants to quinolones” value in test [2] is listed as “hypersensitivity”.
